According to publication PMC6199744, “Development of Chemical Proteomics for the Folateome and Analysis of the Kinetoplastid Folateome” (ACS Infectious Diseases, 2018):
Where two headings read alike, the source gives them in different places.

How the values were obtained:
Assay type in all cases: binding
[1] = target: T1, HeLa cell extract proteins (Homo sapiens, UniProt Q14157)
T1 construct: endogenous in cells; host or cells: HeLa cell extract
T1 sequence (Q14157 1-1087): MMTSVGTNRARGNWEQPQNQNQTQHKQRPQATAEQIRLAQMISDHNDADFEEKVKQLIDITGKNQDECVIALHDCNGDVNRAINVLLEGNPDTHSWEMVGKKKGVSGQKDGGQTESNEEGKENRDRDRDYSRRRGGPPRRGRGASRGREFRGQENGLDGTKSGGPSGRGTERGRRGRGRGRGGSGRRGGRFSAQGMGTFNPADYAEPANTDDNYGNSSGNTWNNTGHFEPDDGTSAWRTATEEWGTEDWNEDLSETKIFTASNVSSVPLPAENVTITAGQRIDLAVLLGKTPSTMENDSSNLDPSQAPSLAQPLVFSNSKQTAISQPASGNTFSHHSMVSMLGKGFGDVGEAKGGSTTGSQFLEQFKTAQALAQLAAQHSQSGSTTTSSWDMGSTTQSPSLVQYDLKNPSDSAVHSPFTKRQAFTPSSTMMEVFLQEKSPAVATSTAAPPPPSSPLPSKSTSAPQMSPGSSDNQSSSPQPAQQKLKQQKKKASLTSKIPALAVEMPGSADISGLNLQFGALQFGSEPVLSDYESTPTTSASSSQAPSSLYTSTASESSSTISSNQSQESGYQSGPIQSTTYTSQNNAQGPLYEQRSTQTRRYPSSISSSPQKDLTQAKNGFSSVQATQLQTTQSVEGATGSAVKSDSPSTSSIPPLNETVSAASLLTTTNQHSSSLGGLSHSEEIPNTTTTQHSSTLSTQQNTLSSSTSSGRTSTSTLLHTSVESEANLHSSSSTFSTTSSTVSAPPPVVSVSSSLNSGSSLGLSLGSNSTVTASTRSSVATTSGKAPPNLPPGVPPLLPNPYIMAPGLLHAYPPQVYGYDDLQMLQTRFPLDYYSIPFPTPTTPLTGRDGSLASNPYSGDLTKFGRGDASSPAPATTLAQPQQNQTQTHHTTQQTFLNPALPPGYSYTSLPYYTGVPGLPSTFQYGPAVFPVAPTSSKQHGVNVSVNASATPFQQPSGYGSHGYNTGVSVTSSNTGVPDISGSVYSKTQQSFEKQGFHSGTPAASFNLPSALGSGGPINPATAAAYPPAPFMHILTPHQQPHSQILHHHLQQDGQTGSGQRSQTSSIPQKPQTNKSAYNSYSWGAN

[2] = target: T2, HeLa cell extract proteins (Homo sapiens, UniProt P48163)
T2 construct: endogenous in cells; host or cells: HeLa cell extract
T2 sequence (P48163 1-572): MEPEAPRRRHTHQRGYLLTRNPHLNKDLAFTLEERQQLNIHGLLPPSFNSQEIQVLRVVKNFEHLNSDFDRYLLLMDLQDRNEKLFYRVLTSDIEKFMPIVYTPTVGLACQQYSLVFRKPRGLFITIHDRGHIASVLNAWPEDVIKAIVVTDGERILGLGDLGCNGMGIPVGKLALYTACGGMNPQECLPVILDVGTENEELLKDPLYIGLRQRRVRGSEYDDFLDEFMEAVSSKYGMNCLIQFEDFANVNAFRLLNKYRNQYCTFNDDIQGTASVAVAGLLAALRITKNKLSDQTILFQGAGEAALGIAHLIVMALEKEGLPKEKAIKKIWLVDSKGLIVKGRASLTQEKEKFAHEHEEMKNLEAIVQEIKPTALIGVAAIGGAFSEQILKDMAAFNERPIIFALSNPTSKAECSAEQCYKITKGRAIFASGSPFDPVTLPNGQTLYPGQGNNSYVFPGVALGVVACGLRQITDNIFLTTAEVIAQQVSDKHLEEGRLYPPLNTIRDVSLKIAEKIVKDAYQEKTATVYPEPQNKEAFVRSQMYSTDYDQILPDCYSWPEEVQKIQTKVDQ

[3] = target: T3, HeLa cell extract proteins (Homo sapiens, UniProt P60953); details: protein CDC42; HeLa
T3 construct: endogenous in cells; host or cells: HeLa cell extract
T3 sequence (P60953 whole entry): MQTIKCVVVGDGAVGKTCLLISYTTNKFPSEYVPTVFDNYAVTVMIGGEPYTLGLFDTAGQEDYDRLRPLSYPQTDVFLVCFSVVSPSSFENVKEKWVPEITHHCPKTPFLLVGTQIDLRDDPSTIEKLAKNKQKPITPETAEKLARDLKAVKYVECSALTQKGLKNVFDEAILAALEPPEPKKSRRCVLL

[4] = target: T4, HeLa cell extract proteins (Homo sapiens, UniProt Q8N0W3); details: protein FUK; HeLa
T4 construct: endogenous in cells; host or cells: HeLa cell extract
T4 sequence (Q8N0W3 1-1084): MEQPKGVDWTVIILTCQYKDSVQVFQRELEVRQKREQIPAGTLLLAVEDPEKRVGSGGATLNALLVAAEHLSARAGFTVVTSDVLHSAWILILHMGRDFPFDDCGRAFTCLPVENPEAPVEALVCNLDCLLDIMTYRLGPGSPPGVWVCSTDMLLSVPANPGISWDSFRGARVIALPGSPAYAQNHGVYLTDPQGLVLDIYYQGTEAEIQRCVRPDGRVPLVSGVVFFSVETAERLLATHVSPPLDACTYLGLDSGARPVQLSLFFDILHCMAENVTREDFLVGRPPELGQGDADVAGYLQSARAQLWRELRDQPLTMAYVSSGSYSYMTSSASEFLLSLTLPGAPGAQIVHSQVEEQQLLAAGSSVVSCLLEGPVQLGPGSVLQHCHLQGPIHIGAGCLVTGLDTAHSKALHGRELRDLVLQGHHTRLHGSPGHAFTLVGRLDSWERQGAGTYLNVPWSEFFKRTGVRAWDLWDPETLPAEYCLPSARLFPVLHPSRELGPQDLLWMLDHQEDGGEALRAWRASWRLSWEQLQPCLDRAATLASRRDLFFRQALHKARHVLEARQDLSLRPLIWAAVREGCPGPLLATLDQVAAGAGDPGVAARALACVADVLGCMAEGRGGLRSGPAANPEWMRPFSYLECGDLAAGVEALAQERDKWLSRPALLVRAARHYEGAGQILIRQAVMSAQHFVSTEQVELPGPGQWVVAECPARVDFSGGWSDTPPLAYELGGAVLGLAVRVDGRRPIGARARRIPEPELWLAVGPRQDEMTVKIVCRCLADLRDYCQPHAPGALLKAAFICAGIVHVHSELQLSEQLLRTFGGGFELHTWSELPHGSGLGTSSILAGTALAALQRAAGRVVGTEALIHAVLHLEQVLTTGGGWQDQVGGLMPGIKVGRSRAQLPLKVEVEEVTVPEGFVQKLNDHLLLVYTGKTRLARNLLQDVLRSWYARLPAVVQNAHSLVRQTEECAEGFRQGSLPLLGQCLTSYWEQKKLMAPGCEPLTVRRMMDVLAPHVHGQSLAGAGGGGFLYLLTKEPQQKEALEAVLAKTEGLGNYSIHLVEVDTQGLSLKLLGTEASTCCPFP

| SMILES | fold changes relative to vehicle control ([1]; HeLa, protein UBAP2L) | fold changes relative to vehicle control ([2]; protein ME1, HeLa) | fold changes relative to vehicle control [3] | fold changes relative to vehicle control [4] | also measured |
| --- | --- | --- | --- | --- | --- |
| Nc1nc2c(c(=O)[nH]1)N(C=O)C(CNc1ccc(C(=O)N[C@@H](CCC(=O)O)C(=O)O)cc1)CN2 (some centres unmarked) [LEU, leucovorin] | 0.9 | 0.79 |  |  |  |
| Nc1nc2[nH]cc(CCc3ccc(C(=O)N[C@@H](CCC(=O)O)C(=O)O)cc3)c2c(=O)[nH]1 [PTX, pemetrexed] |  |  |  |  | fold changes relative to vehicle control [1]: 0.98; fold changes relative to vehicle control [2]: 0.84 |
| CCCCCCOc1ccc(Cc2cnc(N)nc2N)cc1 [compound 1] |  |  | 1.11 | 0.96 |  |
| CCCCCCOc1cccc(Cc2cnc(N)nc2N)c1 [compound 2] |  |  | 1.45 | 1.11 |  |
| Nc1nc2cccc(-c3ccccc3)c2n1Cc1ccc(Cl)c(Cl)c1 [compound 3] |  |  | 0.99 | 1.07 |  |
| NCCOCCOCC(=O)Nc1nc2ncc(CNc3ccc(C(=O)NC(CCC(=O)O)C(=O)O)cc3)nc2c(=O)[nH]1 (centres unmarked) [compound 6] | 1.1 | 1.02 |  |  |  |
| NCCCNc1ccc(C(=O)NC(CCC(=O)O)C(=O)O)cc1 (centres unmarked) [compound 7] | 1.08 | 0.86 |  |  |  |
